“And” between values parts separate entries of the source, which are not always exact repeats. Equal entries are not always repeated.
Tests used:
[1] = NO storage and release measurement (chemiluminescence nitric oxide analyzer); assay type: physicochemical
Description: N-diazeniumdiolates NO scaffolds are pH-triggered NO-release donors. Reacting with proton in the physiological condition (e.g., 37° C., pH 7.4), 1 mole of N-diazeniumdiolate regenerates 1 mole of the parent secondary amine compounds and two moles of NO radicals. The real-time detection of NO was performed by using a chemiluminescence-based nitric oxide analyzer (NOA). The total NO storage and dissociation kinetics of water-soluble NO Donors were measured in physiological condition (pH 7.40, 37° C.). The resulting NO-release parameters (e.g., total NO storage, half-life of NO release, maximum flux, and conversion efficiency) were evaluated for suitability as a pharmaceutical product.
Transfer the solution into the high-pressure vessel and purge the headspace with nitrogen. Mix the solution and set nitric oxide pressure to 25 bar (temp 20° C.). Allow the reaction to run for minimum of 3 days. Stop the reaction by venting the NO. Precipitate the reaction product in acetone (10:1 acetone:reaction mixture). Filter the precipitate and vacuum dry.
We sought to determine whether an NO donor and gallium nitrate have antimicrobial synergy against a lab strain of P. aeruginosa (PAK). The Checkerboard assay (described herein) was used with a hepta-substituted cyclodextrin-based NO donor (hereinafter referred to as BIOC76) having approximately ˜4.7 μmol NO/mg dry powder.

[2] = NO release half-life of diazeniumdiolate NO donors in aqueous media at pH 7.4; assay type: physicochemical
Description: The rate of nitric oxide release from diazeniumdiolates can be controlled using a variety of structural features.

P. aeruginosa (PAK) = assay: Combination MIC/MBC assay, BIOC76 with fixed gallium citrate; assay type: cell-based, Pseudomonas aeruginosa; conditions: PAK; alone
Description: Combination MIC/MBC assays are useful when you want to look at only a few concentrations of one compound (Gallium citrate) combined with many concentrations of the second compound (BIOC76).
This method also allows us to see the change in both the MIC and MBC of a drug when in combination with another drug. Checkerboard assays only allow us to see changes in the MIC's.
Test articles are added to a 96-well plate so that when a 2× bacterial culture (prepared to 10^6 CFU/ml) is added, the final concentration in all wells was 1×.
All test articles are prepared at 4×→diluted 1:1 when other TA is added (2×) and diluted 1:1 again to 1× when bacteria are added.
TA #1 (Gallium citrate) is prepared and added to entire rows of a plate at a single concentration.
TA #2 (BIOC76) in then prepared and serially diluted in TA #1, so there are 2-fold dilutions of TA #2 combined with a single concentration of TA #1.
Plates were incubated at 37° C. for 18-24 h.
The ΔMIC/IBC is used to show the change in the MIC/IBC of BIOC76 when in combination with Gallium citrate (compared to when BIOC76 is used alone).
ΔMIC/MBC is the fold-decrease in BIOC76 concentration as a result of the combination.
We concluded BIOC76 and gallium citrate maintain synergistic activity so long as the gallium concentration is at least about 0.005 to about 0.02 mg/ml. In this experimental, we set up MIC/MBC assay and serially diluted BIOC76 in rows with fixed concentrations of gallium citrate. […] The results are shown in FIG. 6, and in the following tables: […]

P. aeruginosa strains = assay: MIC/MBC of BIOC76 and gallium citrate alone against 21 strains; assay type: cell-based, Pseudomonas aeruginosa; conditions: for MBC Rep 1 / MIC Rep 1: alone
Excerpt: Determined the MIC of each test article individually against the strains being tested using the CLSI MIC/MBC method.
In this study, we established the MIC/MiBC's of BIOC76 and gallium citrate alone against each of 21 P. aeruginosa strains. […] The activity of both compounds is also strain-dependent. The results are as follows (the species for each strain is Pseudomonas aeruginosa: […]

P. aeruginosa biofilms = assay: Biofilm eradication (MBEC) on peg lid
[3] = N-methyl amine; cited from earlier work
[4] = molecular target: angiotensin-converting enzyme 2 (ACE2) (Homo sapiens, UniProt Q9BYF1); conditions: ACE2 inhibitor from foodstuffs; cited from earlier work
[5] = PAK (N0049), 3-log reduction in biofilm

angiotensin-converting enzyme 2 (ACE2), sequence (Q9BYF1 18-805): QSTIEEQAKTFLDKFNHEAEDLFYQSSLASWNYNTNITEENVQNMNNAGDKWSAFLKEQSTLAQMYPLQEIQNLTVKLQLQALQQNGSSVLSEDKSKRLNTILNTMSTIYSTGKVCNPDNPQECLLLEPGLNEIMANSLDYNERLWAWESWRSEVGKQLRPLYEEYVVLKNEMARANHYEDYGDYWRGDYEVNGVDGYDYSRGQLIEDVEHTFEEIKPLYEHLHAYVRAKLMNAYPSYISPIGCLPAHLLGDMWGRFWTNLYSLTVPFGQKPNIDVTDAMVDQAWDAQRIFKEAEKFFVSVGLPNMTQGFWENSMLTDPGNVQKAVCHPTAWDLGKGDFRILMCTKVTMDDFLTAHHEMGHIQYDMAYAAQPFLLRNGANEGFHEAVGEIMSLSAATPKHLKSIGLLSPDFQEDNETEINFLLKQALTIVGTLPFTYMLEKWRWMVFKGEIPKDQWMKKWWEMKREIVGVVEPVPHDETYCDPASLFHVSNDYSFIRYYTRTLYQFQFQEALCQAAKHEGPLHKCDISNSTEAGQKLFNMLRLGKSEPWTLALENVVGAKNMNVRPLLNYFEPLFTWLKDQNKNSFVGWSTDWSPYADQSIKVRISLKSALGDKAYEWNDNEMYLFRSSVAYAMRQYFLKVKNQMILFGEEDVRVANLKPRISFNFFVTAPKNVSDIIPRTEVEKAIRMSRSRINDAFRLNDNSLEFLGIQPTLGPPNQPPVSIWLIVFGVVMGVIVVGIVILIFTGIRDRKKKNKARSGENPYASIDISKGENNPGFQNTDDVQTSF
Description for P. aeruginosa strain PAK: All test articles are prepared at 4×→diluted 1:1 when other TA is added (2×), and diluted 1:1 again to 1× when bacteria are added
Experimental Design: The MIC of BIOC76 and Gallium nitrate individually, then set up a checkerboard assay testing 49 combinations of BIOC76 and Gallium nitrate concentrations against 10^6 CFU/ml P. aeruginosa strain PAK. Plates were incubated at 37° C. for 18-24 h, and growth was assessed visually.

C[C@@H]1CCC[C@H](C)N1N(O)N=O [Entry 22, 2,6 cis-dimethylpiperdine-NONOate]
Max Flux [1]: 4933 ppb/mg | NO Total [1]: 3.7 µmol/mg | half-life ([1]; physiological condition (pH 7.40, 37° C.), buffer not named, pH 7.4, NO release): 1.3 h | rate of NO release, fold slower than unsubstituted piperidine ([2]; vs entry 19): over 60 fold

CC(C)C[C@H](NC(=O)[C@@H]1CCCN1N(O)N=O)C(=O)NCC(N)=O [Entry 49]
diazeniumdiolate half-life, fold longer than unsubstituted pyrrolidine analog ([2]; vs entry 29): 140 fold | diazeniumdiolate half-life, fold longer than proline carboxylate analog ([2]; vs entry 30): over 200 fold

O=NN(O)N1C2CCC1c1ccccc12 [Entry 50]
fold more stable than monocyclic dimethyl-substituted pyrrolidine analog ([2]; vs entry 23): 8 fold

O=C([O-])CC(O)(CC(=O)[O-])C(=O)[O-].[Ga+3] [Gallium citrate, gallium citrate, reference compound]
MIC GaCi (P. aeruginosa (PAK)): 65 µg/mL | killing of P. aeruginosa strains (conclusion) (P. aeruginosa strains; 21 P. aeruginosa strains): does not kill any strain of P. aeruginosa | mode of activity alone (conclusion) (P. aeruginosa strains; 21 P. aeruginosa strains): largely bacteriostatic | MBC Rep 1 (P. aeruginosa strains; strain N0047 (AR-BANK #103)): >2000 µg/mL | MIC Rep 1 (P. aeruginosa strains; strain N0047 (AR-BANK #103)): 250 µg/mL | MBC Rep 1 (P. aeruginosa strains; strain N0048 (ATCC 19143)): >2000 µg/mL | MIC Rep 1 (P. aeruginosa strains; strain N0048 (ATCC 19143)): 2000 µg/mL | MBC Rep 1 (P. aeruginosa strains; strain N0049 (PAK)): >2000 µg/mL | MIC Rep 1 (P. aeruginosa strains; strain N0049 (PAK)): 65 µg/mL | MBC Rep 1 (P. aeruginosa strains; strain N0050 (AR-BANK #0095)): >2000 µg/mL | MIC Rep 1 (P. aeruginosa strains; strain N0050 (AR-BANK #0095)): 250 µg/mL | MBC Rep 1 (P. aeruginosa strains; strain N0051 (AU32077)): >2000 µg/mL | MIC Rep 1 (P. aeruginosa strains; strain N0051 (AU32077)): 250 µg/mL | MIC Rep 1 (P. aeruginosa strains; strain N0052 (AU25834)): >2000 µg/mL | MBC Rep 1 (P. aeruginosa strains; strain N0053 (AU30524)): >2000 µg/mL | MIC Rep 1 (P. aeruginosa strains; strain N0053 (AU30524)): 250 µg/mL | MBC Rep 1 (P. aeruginosa strains; strain N0054 (AU26773)): >2000 µg/mL | MIC Rep 1 (P. aeruginosa strains; strain N0054 (AU26773)): 125 µg/mL | MBC Rep 1 (P. aeruginosa strains; strain N0055 (AU22725)): >2000 µg/mL | MIC Rep 1 (P. aeruginosa strains; strain N0055 (AU22725)): 62.5 µg/mL | MBC Rep 1 (P. aeruginosa strains; strain N0056 (AU22505)): >2000 µg/mL | MIC Rep 1 (P. aeruginosa strains; strain N0056 (AU22505)): 1000 µg/mL | MBC Rep 1 (P. aeruginosa strains; strain N0057 (AU35400)): >2000 µg/mL | MIC Rep 1 (P. aeruginosa strains; strain N0057 (AU35400)): 65 µg/mL | MBC Rep 1 (P. aeruginosa strains; strain N0058 (AU32543)): >2000 µg/mL | MIC Rep 1 (P. aeruginosa strains; strain N0058 (AU32543)): 500 µg/mL | MBC Rep 1 (P. aeruginosa strains; strain N0059 (AR-BANK #0054)): >2000 µg/mL | MIC Rep 1 (P. aeruginosa strains; strain N0059 (AR-BANK #0054)): 32.5 µg/mL | MBC Rep 1 (P. aeruginosa strains; strain N0069 (AR-BANK #0090)): >2000 µg/mL | MIC Rep 1 (P. aeruginosa strains; strain N0069 (AR-BANK #0090)): 125 µg/mL | MBC Rep 1 (P. aeruginosa strains; strain N0070 (AR-BANK #0092)): >2000 µg/mL | MIC Rep 1 (P. aeruginosa strains; strain N0070 (AR-BANK #0092)): 62.5 µg/mL | MBC Rep 1 (P. aeruginosa strains; strain N0071 (AR-BANK #0100)): >2000 µg/mL | MIC Rep 1 (P. aeruginosa strains; strain N0071 (AR-BANK #0100)): 125 µg/mL | MBC Rep 1 (P. aeruginosa strains; strain N0072 (AR-BANK #0105)): >2000 µg/mL | MIC Rep 1 (P. aeruginosa strains; strain N0072 (AR-BANK #0105)): 500 µg/mL | MBC Rep 1 (P. aeruginosa strains; strain N0079 (AR-BANK #0108)): >2000 µg/mL | MIC Rep 1 (P. aeruginosa strains; strain N0079 (AR-BANK #0108)): 125 µg/mL | MBC Rep 1 (P. aeruginosa strains; strain N0080 (AR-BANK #0110)): >2000 µg/mL | MIC Rep 1 (P. aeruginosa strains; strain N0080 (AR-BANK #0110)): 125 µg/mL | MBC Rep 1 (P. aeruginosa strains; strain N0081 (AR-BANK #0111)): >2000 µg/mL | MIC Rep 1 (P. aeruginosa strains; strain N0081 (AR-BANK #0111)): 250 µg/mL | MBC Rep 1 (P. aeruginosa strains; strain N0099 (ATCC 29260)): >2000 µg/mL | MIC Rep 1 (P. aeruginosa strains; strain N0099 (ATCC 29260)): 125 µg/mL

O=[N+]([O-])[O-].O=[N+]([O-])[O-].O=[N+]([O-])[O-].[Ga+3] [Gallium nitrate, gallium nitrate, reference compound]
MBEC of Gallium nitrate (P. aeruginosa biofilms; [5]): >16 mg/mL | effectiveness against P. aeruginosa biofilms (P. aeruginosa biofilms; biofilms grown under aerobic conditions): is not | MIC Ga(NO3)3 alone (P. aeruginosa strain PAK): 65 µg/mL | MIC Ga(NO3)3 combo (P. aeruginosa strain PAK; in combination with BIOC76): 15 µg/mL

C[C@@H]1CCC[C@H](C)N1C [N-methyl-cis-2,6-dimethylpiperidine]
pKa [3]: 9.35

N[C@@H](CCN[C@@H](CCN1CC[C@H]1C(=O)O)C(=O)O)C(=O)O [Nicotianamine]
IC50 [4]: 84 nM

NC[C@H]1O[C@H](O[C@H]2[C@H](O)[C@@H](O[C@H]3O[C@H](CO)[C@@H](O)[C@H](N)[C@H]3O)[C@H](N)C[C@@H]2N)[C@H](N)C[C@@H]1O [Tobra, Tobramycin]
MBEC of Tobra (P. aeruginosa biofilms; [5]): 8 µg/mL and 4 µg/mL

Source: patent US20240261243A1, “NITRIC OXIDE DONORS, COMPOSITIONS, AND METHODS OF USE” (priority 2020, published 2024)
